Experimental findings from publication PMC7052197 (Scientific Reports, 2020) are described below.

The target in one experiment is αCtx (Naja kaouthia, UniProt P01391). As to the kind of experiment: biochemical. Format: binding.
The target of the next experiment is αBgt (Bungarus multicinctus, UniProt P60615). Description: biochemical. Format: binding.

Ends that are not written are not given here. Some results are limits rather than exact numbers.

αBgt, sequence (P60615 22-95 limits assumed): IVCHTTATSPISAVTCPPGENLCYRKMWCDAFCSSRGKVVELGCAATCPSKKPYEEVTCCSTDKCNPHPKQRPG
αCtx, sequence (P01391 whole entry, looked up): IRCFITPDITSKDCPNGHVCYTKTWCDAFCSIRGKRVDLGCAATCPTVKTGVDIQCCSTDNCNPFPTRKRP

Regarding WRYYESSLLPYPD [HAP], the Kd – broadly, the free concentration of one partner at which half of the binding sites on the other are occupied at equilibrium, for simple one-to-one binding – was over 10 µM on αCtx and 0.029 ± 0.008 µM on αBgt.
The corresponding values for WRYYESSLEPYPD [HAP[L9E]] are 7 ± 1 µM and 0.091 ± 0.033 µM.
